Results reported in ChEMBL document CHEMBL3867468, “Discovery of 4-chloro-3-(5-(pyridin-3-yl)-1,2,4-oxadiazole-3-yl)benzamides as novel RET kinase inhibitors” (Bioorg Med Chem Lett, 2016).

Experiments:
[1] = target: Proto-oncogene tyrosine-protein kinase receptor Ret (Homo sapiens, UniProt P07949)
Description: Inhibition of RET (unknown origin) using poly[Glu:Tyr] (4:1) as substrate after 60 mins by ELISA

[2] = Inhibition of CCDC6/RET V804M mutant (unknown origin) expressed in mouse BaF3 cells assessed as reduction in cell proliferation after 72 hrs by MTT assay; type: cell-based; conditions: BaF3, 72 h

Sequence of Proto-oncogene tyrosine-protein kinase receptor Ret (P07949 whole entry): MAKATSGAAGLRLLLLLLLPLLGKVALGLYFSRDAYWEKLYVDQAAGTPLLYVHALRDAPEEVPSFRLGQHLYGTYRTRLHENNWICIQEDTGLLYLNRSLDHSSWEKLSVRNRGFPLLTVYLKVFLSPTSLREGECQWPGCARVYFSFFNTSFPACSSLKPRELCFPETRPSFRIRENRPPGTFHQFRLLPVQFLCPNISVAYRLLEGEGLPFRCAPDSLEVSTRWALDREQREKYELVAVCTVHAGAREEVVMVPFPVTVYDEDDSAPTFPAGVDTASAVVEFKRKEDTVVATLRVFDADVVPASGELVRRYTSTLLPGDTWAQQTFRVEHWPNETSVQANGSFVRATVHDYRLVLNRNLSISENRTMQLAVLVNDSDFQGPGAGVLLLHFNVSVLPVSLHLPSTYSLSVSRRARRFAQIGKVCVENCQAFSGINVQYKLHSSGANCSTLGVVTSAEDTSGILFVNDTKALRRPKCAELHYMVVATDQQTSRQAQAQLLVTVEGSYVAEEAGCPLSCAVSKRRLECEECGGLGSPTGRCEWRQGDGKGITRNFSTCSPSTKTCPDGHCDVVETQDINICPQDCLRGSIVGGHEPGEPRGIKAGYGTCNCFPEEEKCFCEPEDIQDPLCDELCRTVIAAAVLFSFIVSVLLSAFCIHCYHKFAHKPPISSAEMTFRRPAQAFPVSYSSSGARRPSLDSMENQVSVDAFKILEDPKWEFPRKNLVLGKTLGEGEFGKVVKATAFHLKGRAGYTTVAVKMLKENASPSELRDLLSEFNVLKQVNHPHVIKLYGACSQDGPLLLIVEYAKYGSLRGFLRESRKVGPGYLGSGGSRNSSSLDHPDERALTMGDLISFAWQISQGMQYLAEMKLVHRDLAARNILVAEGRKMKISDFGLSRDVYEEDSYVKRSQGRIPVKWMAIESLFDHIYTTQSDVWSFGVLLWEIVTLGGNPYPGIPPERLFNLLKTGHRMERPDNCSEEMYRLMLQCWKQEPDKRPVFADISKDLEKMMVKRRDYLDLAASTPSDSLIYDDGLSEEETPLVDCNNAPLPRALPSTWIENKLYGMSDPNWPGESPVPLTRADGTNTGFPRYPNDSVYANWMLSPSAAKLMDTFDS

| Structure (SMILES) | IC50 [1] | IC50 [2] |
| --- | --- | --- |
| CN1CCN(Cc2ccc(NC(=O)c3ccc(Cl)c(-c4noc(-c5ccncc5)n4)c3)cc2C(F)(F)F)CC1 | 26.6 nM | – |
| COc1ccc(-c2nc(-c3cc(C(=O)Nc4ccc(CN5CCN(C)CC5)c(C(F)(F)F)c4)ccc3Cl)no2)cn1 | 342 nM | – |
| COCCOc1cncc(-c2nc(-c3cc(C(=O)Nc4ccc(CN5CCN(C)CC5)c(C(F)(F)F)c4)ccc3Cl)no2)c1 | 11.4 nM | – |
| CN1CCN(Cc2ccc(NC(=O)c3ccc(Cl)c(-c4noc(-c5cncc(N6CCOCC6)c5)n4)c3)cc2C(F)(F)F)CC1 | 2.1 nM | – |
| CN1CCN(Cc2ccc(NC(=O)c3ccc(Cl)c(C#Cc4cccnc4)c3)cc2C(F)(F)F)CC1 | 2.5 nM | – |
| Cc1ccc(C(=O)Nc2ccc(CN3CCN(C)CC3)c(C(F)(F)F)c2)cc1C#Cc1cnc2cccnn12 [PONATINIB] | – | 136 nM |
| CN1CCN(Cc2ccc(NC(=O)c3ccc(Cl)c(-c4noc(-c5cncc(-c6cnn(C)c6)c5)n4)c3)cc2C(F)(F)F)CC1 | 1.8 nM | 442 nM |
| CN1CCN(Cc2ccc(NC(=O)c3cccc(-c4noc(-c5cccnc5)n4)c3)cc2C(F)(F)F)CC1 | 17.9 nM | – |

Second part, led by results:

| IC50 [1] | Structure (SMILES) | IC50 [2] |
| --- | --- | --- |
| 138 nM | CN1CCN(Cc2ccc(NC(=O)c3ccc(Cl)c(-c4nnc(-c5cccnc5)o4)c3)cc2C(F)(F)F)CC1 | – |
| 12.4 nM | CN1CCN(Cc2ccc(NC(=O)c3ccc(Cl)c(-c4nc(-c5cccnc5)no4)c3)cc2C(F)(F)F)CC1 | – |
| 108 nM | Cc1ccc(C(=O)Nc2ccc(CN3CCN(C)CC3)c(C(F)(F)F)c2)cc1-c1noc(-c2cccnc2)n1 | – |
| 19.4 nM | CN1CCN(Cc2ccc(NC(=O)c3ccc(Cl)c(-c4cnc(-c5cccnc5)o4)c3)cc2C(F)(F)F)CC1 | – |
| 7.3 nM | CN1CCN(Cc2ccc(NC(=O)c3ccc(Cl)c(-c4noc(-c5cccnc5)n4)c3)cc2C(F)(F)F)CC1 | – |
| 21.4 nM | CN1CCN(Cc2ccc(NC(=O)c3ccc(Cl)c(-c4nc(-c5cccnc5)co4)c3)cc2C(F)(F)F)CC1 | – |
